# What was measured:
# HDAC2 [1] = target: T1, HDAC2 (Homo sapiens (Human), UniProt Q92769); test: HDAC2glo assay; type: cell-based
# HDAC1 = HDAC1 (Homo sapiens (Human), UniProt Q13547); test: HDAC enzyme assay, HDAC1; type: biochemical
# HDAC6 = HDAC6 (Homo sapiens (Human), UniProt Q9UBN7); test: HDAC enzyme assay, HDAC6; type: biochemical
# [2] = test system: human CD34+ bone marrow cells; test: Cellular viability of cultured CD34+ bone marrow cells; conditions: 1 μM, treatment for 4 days
# [3] = test system: human erythroid, myeloid and megakaryocyte hematopoietic progenitors; test: Hematopoietic progenitor proliferation (colony) assay; type: cell-based; conditions: compared with MS-275; 14-16 days in culture
# Description: This study evaluated the potential effect of test compounds on human erythroid, myeloid and megakaryocyte hematopoietic progenitor proliferation in media formulations containing various cytokines. Normal human bone marrow light density cells derived from a normal bone marrow donor (Lonza, Md.) were used for these studies. Clonogenic progenitors of human erythroid (CFU-E, BFU-E) and granulocyte-monocyte (CFU-GM) lineages were assessed in a semi-solid methylcellulose-based media formulation containing rhIL-3 (10 ng/mL), rhGM-SCF (10 ng/mL), rhSCF (50 ng/mL) and Epo (3 U/mL). Clonogenic progenitors of human megakaryocyte lineage were assessed in a semi-solid collagen based matrix containing rhIL-3 (10 ng/mL), rhIL-6 (10 ng/mL) and rhTpo (50 ng/mL).
# Compounds were added to the medium to give the final desired concentrations. […] Following 14-16 days in culture, myeloid and erythroid colonies were assessed microscopically and scored by trained personnel. […] The colonies were assessed and scored by trained personnel and divided into the following categories based on size; CFU-Mk (3-20), CFU-Mk (21-49) and CFU-Mk (≧50).
# The mean±1 standard deviation of three replicate cultures was calculated for progenitors in both media formulations. […] A sigmoidal curve was then fit to the graph and from this curve the inhibitory concentration (μM) was then calculated using the Boltzman equation […]
# [4] = test system: SH-SY5Y neuroblastoma cells; test: Neuroblastoma cell cycle by flow cytometry, SH-SY5Y; type: cell-based; conditions: 72 hours, 0.5, 2 and 5 μM (ATRA 1 μM)
# Description: The following is a quick summary of the neuroblastoma cell cycle experiments. Adherent cells were plated into 12-well plates at 10^6 cells/well and allowed to adhere for 2-4 hours. Compounds were dispensed in DMSO at the indicated concentrations using an automated liquid handling system (Tecan D300) and incubated for the indicated times at 37° C. with 5% CO2. Cells were harvested with enzyme-free cell disassociation solution and washed with buffered saline. Cells were fixed overnight with 100% ethanol. Cell cycle was assessed by flow cytometry using the Molecular Probes FxCycle PI/RNase Staining Solution kit according to manufacture protocols.
# The protocol for the cell cycle experiments was as follows. The day before the experiment, the cells were fed in the flask by doubling the media. Then, the cells were harvested by adding non-enzymatic cell dissociation media and incubating at 37° C. for 15 minutes. Next, the cells were transferred to a 50 ml tube and pipet to create a single-cell suspension. The cells were then washed with PBS buffer. Then, the cells were resuspended in complete media at 5×10^5 cells per ml. Next, 2 ml of cells were transferred to 12-well plates. Then, the treatment compounds were dispensed into each well using the D300 liquid handler. The cells were incubated for the indicated time at 37° C. Then, the cells were harvested by adding 500 μl enzyme free cell dissociation solution and incubating at 37° C. for 15 minutes. Next, the cells were spun into a pellet and then washed with PBS. Then, 500 μl 100% EtOH was added and incubated at 4° C. overnight. Then, the cells were washed 3× with PBS. The cells were then resuspended in […] FxCycle PI/RNase solution, and incubated for 2-4 hours at room temperature. Finally, the cells were assayed by flow cytometry.
# SH-SY5Y neuroblastoma cells were treated with varying concentrations of either Compound X or Y, and/or ATRA (all trans retinoic acid). […] In addition, the fold change of p21 was also calculated. […] The HDACi/ATRA combination effects were modest, with little difference compared to single agents.
# H929 human myeloma cells = test: In vitro cell proliferation, MTS viability; type: cell-based; conditions: up to 7 days, relative to Day 0
# Description: Cellular viability was assessed using Aqueous One MTS reagent at Days 0 (immediately after seeding), 3, 5, and 7.
# HDAC2 [5] = target: T1, HDAC2; test: HDAC enzyme assay, HDAC2; type: biochemical
# T1 sequence (Q92769 whole entry): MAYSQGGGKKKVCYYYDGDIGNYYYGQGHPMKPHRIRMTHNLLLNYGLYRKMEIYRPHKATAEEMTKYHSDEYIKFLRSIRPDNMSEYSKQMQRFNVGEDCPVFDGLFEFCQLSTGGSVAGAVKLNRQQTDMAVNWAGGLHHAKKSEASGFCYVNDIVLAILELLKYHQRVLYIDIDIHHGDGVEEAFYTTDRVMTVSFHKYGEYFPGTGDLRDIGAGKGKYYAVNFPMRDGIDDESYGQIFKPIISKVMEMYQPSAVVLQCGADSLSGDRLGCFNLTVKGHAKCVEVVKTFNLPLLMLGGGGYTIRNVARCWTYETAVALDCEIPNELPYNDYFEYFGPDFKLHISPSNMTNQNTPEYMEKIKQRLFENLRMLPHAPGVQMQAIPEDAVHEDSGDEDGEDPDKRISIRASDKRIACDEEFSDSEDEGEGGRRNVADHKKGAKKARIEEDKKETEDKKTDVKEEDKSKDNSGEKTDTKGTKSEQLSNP
# Sequence of HDAC1 (Q13547 whole entry): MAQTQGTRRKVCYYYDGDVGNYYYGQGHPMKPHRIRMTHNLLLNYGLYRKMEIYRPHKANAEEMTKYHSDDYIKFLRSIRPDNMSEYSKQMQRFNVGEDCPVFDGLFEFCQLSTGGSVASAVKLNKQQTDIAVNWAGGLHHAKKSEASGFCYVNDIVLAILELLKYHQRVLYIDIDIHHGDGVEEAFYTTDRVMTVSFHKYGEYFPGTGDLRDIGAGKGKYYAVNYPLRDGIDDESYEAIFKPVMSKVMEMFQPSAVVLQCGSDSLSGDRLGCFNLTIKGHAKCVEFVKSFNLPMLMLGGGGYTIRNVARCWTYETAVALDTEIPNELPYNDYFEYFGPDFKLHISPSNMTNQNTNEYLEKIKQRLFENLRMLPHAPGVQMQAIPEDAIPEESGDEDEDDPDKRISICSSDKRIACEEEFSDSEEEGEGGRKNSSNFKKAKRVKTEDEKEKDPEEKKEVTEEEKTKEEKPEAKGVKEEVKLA
# Sequence of HDAC6 (Q9UBN7 whole entry): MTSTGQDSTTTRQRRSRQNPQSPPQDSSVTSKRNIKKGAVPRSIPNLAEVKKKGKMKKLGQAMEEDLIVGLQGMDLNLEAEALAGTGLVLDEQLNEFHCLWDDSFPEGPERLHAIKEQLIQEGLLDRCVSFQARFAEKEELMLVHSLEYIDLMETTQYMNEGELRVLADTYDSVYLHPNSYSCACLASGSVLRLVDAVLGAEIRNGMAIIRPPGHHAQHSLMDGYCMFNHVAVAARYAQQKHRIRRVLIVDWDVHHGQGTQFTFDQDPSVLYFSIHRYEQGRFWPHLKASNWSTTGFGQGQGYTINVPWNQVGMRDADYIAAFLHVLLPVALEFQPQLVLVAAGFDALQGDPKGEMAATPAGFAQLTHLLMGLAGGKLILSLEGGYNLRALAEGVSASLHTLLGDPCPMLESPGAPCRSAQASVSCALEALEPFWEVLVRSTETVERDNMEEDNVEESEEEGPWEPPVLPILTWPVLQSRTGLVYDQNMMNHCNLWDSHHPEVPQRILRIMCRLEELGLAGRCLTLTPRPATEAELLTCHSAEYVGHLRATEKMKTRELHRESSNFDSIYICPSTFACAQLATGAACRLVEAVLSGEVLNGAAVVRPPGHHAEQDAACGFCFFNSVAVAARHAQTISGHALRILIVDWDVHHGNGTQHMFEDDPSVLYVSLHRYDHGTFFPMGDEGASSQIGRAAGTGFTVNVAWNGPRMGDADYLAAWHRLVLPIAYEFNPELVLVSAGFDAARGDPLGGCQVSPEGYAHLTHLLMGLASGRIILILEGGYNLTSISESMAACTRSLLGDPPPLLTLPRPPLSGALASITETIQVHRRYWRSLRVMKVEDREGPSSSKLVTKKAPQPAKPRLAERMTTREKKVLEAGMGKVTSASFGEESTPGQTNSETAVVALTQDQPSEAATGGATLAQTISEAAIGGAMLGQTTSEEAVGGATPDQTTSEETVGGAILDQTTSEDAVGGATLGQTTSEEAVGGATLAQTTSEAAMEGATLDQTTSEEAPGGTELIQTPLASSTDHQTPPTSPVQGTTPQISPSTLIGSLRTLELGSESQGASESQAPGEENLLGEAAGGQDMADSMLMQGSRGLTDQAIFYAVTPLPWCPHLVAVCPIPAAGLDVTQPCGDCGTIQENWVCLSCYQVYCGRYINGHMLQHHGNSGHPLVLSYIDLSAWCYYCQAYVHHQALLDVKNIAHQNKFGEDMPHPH
smiles,measurement,setting,value
"O=C(NO)c1cnc(NC2(c3ccccc3)CCN(C(=O)Nc3ccccc3)CC2)nc1 [Compound 001, N-hydroxy-2-((4-phenyl-1-(phenylcarbamoyl)piperidin-4-yl)amino)pyrimidine-5-carboxamide]",concentration at which maximal HDAC2 inhibition was reached,HDAC2 [1],3 to 4 µM
same,IC50,HDAC1,38 nM
same,selectivity for HDAC1 and 2,HDAC1; relative to HDAC3,30 fold
same,IC50,HDAC6,1.9 nM
same,decrease in cells viability,[2],1.2 fold
same,"cytotoxicity against erythroid, myeloid and megakaryocytes",[3],significantly less cytotoxicity
same,"percent of the cell population in G2, S, G1 and Sub G1 phase",[4],induced a reduction in G1/G2 and increase in sub-G1
same,doses resulting in a net decrease in the viability of H929 cells,H929 human myeloma cells,over 3 uM
same,IC50,HDAC2 [5],34 nM
